Holding throughout (format): functional
The subject of assay [1] is Saccharomyces cerevisiae. The experiment in a line: Antifungal activity against Saccharomyces cerevisiae.
In assay [2] the test system is Candida albicans. The experiment in a line: Antifungal activity against Candida albicans.
The subject of assay [3] is Aspergillus niger. In words: Antifungal activity against Aspergillus niger.
Assay [4] has as its system Aspergillus fumigatus. In words: Antifungal activity against Aspergillus fumigatus.
The test system of assay [5] is Aspergillus fumigatus. The experiment in a line: Potency index, ratio for MIC of fluconazole to MIC of compound for antifungal activity against Aspergillus fumigatus.
Assay [6] has as its system Saccharomyces cerevisiae. The experiment in a line: Potency index, ratio for MIC of fluconazole to MIC of compound for antifungal activity against Saccharomyces cerevisiae.
Assay [7] deals with Aspergillus niger. The experiment in a line: Potency index, ratio for MIC of fluconazole to MIC of compound for antifungal activity against Aspergillus niger.
In assay [8] the test system is Aspergillus fumigatus. In words: Antifungal activity against Aspergillus fumigatus assessed as reduction in fungal cell growth incubated for 24 and 48 hrs by broth microdilution method.
The test system of assay [9] is Candida albicans. The experiment in a line: Antifungal activity against Candida albicans MTCC 227 assessed as reduction in fungal cell growth incubated for 24 and 48 hrs by broth microdilution method. (In general: Dilution methods test growth across graded concentrations, often in twofold steps.)
Assay [10] relates to Candida albicans. The experiment in a line: Potency index, ratio for MIC of griseofulvin to MIC of compound for antifungal activity against Candida albicans MTCC 227 assessed as reduction in fungal cell growth incubated for 24 and 48 hrs by broth microdilution method.
Assay [11] concerns Candida albicans. In words: Potency index, ratio for MIC of fluconazole to MIC of compound for antifungal activity against Candida albicans TA.
Assay [12] has as its system Candida albicans. In words: Antifungal activity against Candida albicans TA.
The subject of assay [13] is Candida albicans. In words: In vivo antifungal activity against Candida albicans TA infected in CDF-1 mouse dosed orally assessed as survival of mouse. The note with it: po.
In assay [14] the test system is Aspergillus flavus. The experiment in a line: Antifungal activity against Aspergillus flavus assessed as inhibition zone at 1 ug/ml incubated for 24 to 72 hrs by disk diffusion method. The note with it: read-out: IZ. In general terms: In agar diffusion tests the substance spreads into inoculated agar from a disc or well.
Assay [15] has as its system Trichoderma harzianum. In words: Antifungal activity against Trichoderma harzianum assessed as inhibition zone at 1 ug/ml incubated for 24 to 72 hrs by disk diffusion method. The settings on record: read-out: IZ.
Assay [16] concerns Aspergillus niger. In words: Antifungal activity against Aspergillus niger assessed as inhibition zone at 1 ug/ml incubated for 24 to 72 hrs by disk diffusion method. The settings on record: read-out: IZ.
Assay [17] deals with Aspergillus fumigatus. In words: Antifungal activity against Aspergillus fumigatus assessed as inhibition zone at 1 ug/ml incubated for 24 to 72 hrs by disk diffusion method. The settings on record: read-out: IZ.
In assay [18] the test system is Nakaseomyces glabratus. In words: Antifungal activity against Candida glabrata ATCC 36583 by broth microdilution method.
For assay [19], the system named is Candida tropicalis. In words: Antifungal activity against Candida tropicalis by broth microdilution method.
Assay [20] relates to Aspergillus niger. The experiment in a line: Antifungal activity against Aspergillus niger assessed as inhibition zone at 50 ug/ml by disk diffusion method. The note with it: read-out: IZ.
The subject of assay [21] is Candida albicans. In words: Antifungal activity against Candida albicans NCCS 3471 assessed as inhibition zone at 10 ug/ml incubated for 3 to 4 days by disk diffusion method. The settings on record: read-out: IZ.
The subject of assay [22] is Aspergillus fumigatus. In words: Antifungal activity against Aspergillus fumigatus NCIM 902 assessed as inhibition zone at 10 ug/ml incubated for 3 to 4 days by disk diffusion method. The note with it: read-out: IZ.
For assay [23], the system named is Candida albicans. In words: Antifungal activity against Candida albicans NCCS 3471 assessed as inhibition zone at 50 ug/ml by disk diffusion method. The settings on record: read-out: IZ.
Assay [24] relates to Candida albicans. In words: Antifungal activity against Candida albicans MTCC 227 assessed as reduction in fungal cell growth incubated for 24 hrs by broth microdilution method. The note with it: MTCC 227, 24 h.
For assay [25], the system named is Candida albicans. The experiment in a line: Antifungal activity against Candida albicans MTCC183 assessed as reduction in fungal cell growth incubated for 24 to 48 hrs.
For assay [26], the system named is Nakaseomyces glabratus. The experiment in a line: Antifungal activity against Candida glabrata NCIM 3236 assessed as reduction in fungal cell growth incubated for 24 hrs by broth microdilution method. The settings on record: NCIM 3236, 24 h.
For assay [27], the system named is Aspergillus niger. The experiment in a line: Antifungal activity against Aspergillus niger MTCC281 assessed as reduction in fungal cell growth incubated for 24 to 48 hrs.

Converted amounts (≈) assume the structure as drawn.

The term MIC denotes the least concentration at which growth counts as inhibited. As to `O=C(/C=C/c1ccc([N+](=O)[O-])cc1)c1ccc(-n2nnnc2-c2nc(-c3nnnn3-c3ccc(C(=O)/C=C/c4ccc([N+](=O)[O-])cc4)cc3)nc(-c3nnnn3-c3ccc(C(=O)/C=C/c4ccc([N+](=O)[O-])cc4)cc3)n2)cc1`, the minimum inhibitory concentration (MIC) in [1], in assay [2], in assay [3] and in assay [4] was less than 2.5 µg/mL each time.
With `Nc1nc(-c2ccc(-n3cnnn3)cc2)cc(-c2ccc(OC(F)F)c(O)c2)n1`, the Ratio entry in [5], in assay [6] and in [7] was “>=2” each time.
For the compound `Cc1ccc2[nH]c(-c3cc4cc(Cl)ccc4n4nnnc34)nc2c1`, the MIC is 125 to 1000 µg/mL (≈ 373 to 2990 µM) in assay [8] and 125 µg/mL (≈ 373 µM) in [9]. Moreover, the Ratio in assay [10] worked out at 4.
Usually ED50 stands for the midpoint of the dose-response relation. Regarding `C[C@@H](n1cnnn1)[C@](O)(Cn1cncn1)c1ccc(F)cc1F`, the Ratio in [11] is on record as 8. For the same compound, it took 12.5 µg/mL (≈ 38.9 µM) to inhibit growth in [12] (MIC). In assay [13], the ED50 was 0.18 mg/kg.
As to `N#Cc1c(-c2ccco2)nc2sc3c4nnnn4cnc3n2c1=O`, the zone of inhibition at 1 µg/mL in [14], in assay [15], in assay [16] and in [17] was 1.8 to 2.5 mm each time.
With `CC(=O)N1CCN(c2ccc(OCC3COC(Cn4ccnc4)(c4ccc(Cl)cc4Cl)O3)cc2)CC1` (stereo not drawn) [KETOCONAZOLE], the minimum inhibitory concentration (MIC) in assay [18], in assay [19] and in assay [2] was 25 to 50 µg/mL (≈ 47 to 94.1 µM) in each case. The zone of inhibition at 50 µg/mL in assay [20] is 23 mm; in assay [23], 26 mm. Also, the results for the zone of inhibition at 10 µg/mL in [21] and in assay [22] were 24 mm and 23 mm, respectively.
For the compound `Clc1ccc(COC(Cn2ccnc2)c2ccc(Cl)cc2Cl)c(Cl)c1` (stereo not drawn) [MICONAZOLE], the MIC was determined as 12.5 µg/mL (≈ 30 µM) in [24], 25 µg/mL (≈ 60.1 µM) in [25], 400 µg/mL (≈ 961 µM) in assay [26] and 12.5 µg/mL (≈ 30 µM) in assay [27].
